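Five concentrations, 48 hours, 96-well plates. TGI denotes the concentration required for complete inhibition of growth.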
Key:
Assay in all cases: DTP human tumour cell line panel, 48 h
[1] = system: K-562 leukemia
[2] = system: UACC-62 melanoma
[3] = system: TK-10 renal
[4] = system: MCF7 breast
[5] = system: M14 melanoma
[6] = system: U251 CNS
[7] = system: NCI-H23 lung
[8] = system: PC-3 prostate
[9] = system: HCT-15 colon
[10] = system: OVCAR-4 ovarian
[11] = system: HCC-2998 colon
[12] = system: RPMI-8226 leukemia
[13] = system: SK-MEL-5 melanoma
[14] = system: 786-0 renal
[15] = system: OVCAR-3 ovarian
[16] = system: SNB-75 CNS
[17] = system: SK-MEL-2 melanoma
[18] = system: HOP-92 NSCLC
[19] = system: MOLT-4 leukemia
[20] = system: SK-OV-3 ovarian
[21] = system: SN12C renal
[22] = system: SW-620 colon
[23] = system: HCT-116 colon
[24] = system: MDA-MB-435
[25] = system: UACC-257 melanoma
[26] = system: NCI/ADR-RES ovarian
[27] = system: KM12 colon
[28] = system: CCRF-CEM leukemia
[29] = system: SNB-19 CNS
[30] = system: ACHN renal
[31] = system: MDA-N
[32] = system: NCI-H460 lung
[33] = system: SF-295 CNS
[34] = system: DU-145 prostate
[35] = system: T-47D breast
[36] = system: LOX IMVI melanoma
[37] = system: SK-MEL-28 melanoma
[38] = system: UO-31 renal
[39] = system: COLO 205 colon
[40] = system: HOP-62 NSCLC
[41] = system: MDA-MB-231 breast
[42] = system: CAKI-1 renal
[43] = system: A498 renal
[44] = system: NCI-H226 lung
[45] = system: HL-60(TB) leukemia
[46] = system: OVCAR-5 ovarian
[47] = system: HT29 colon
[48] = system: A549 NSCLC
[49] = system: EKVX NSCLC
[50] = system: OVCAR-8 ovarian
[51] = system: SR leukemia
[52] = system: MALME-3M melanoma
[53] = system: RXF 393 renal
[54] = system: NCI-H522 lung
[55] = system: SF-539 CNS
[56] = system: BT-549 breast
[57] = system: IGROV1 ovarian

`C1=C[C@]2(CCC13OCCO3)COc1ccccc12` gave a TGI [1] greater than 100 µM, a TGI [2] greater than 100 µM and a TGI [3] greater than 100 µM. The TGI [4] was greater than 100 µM, the TGI [5] was greater than 100 µM and the TGI [6] was greater than 100 µM. The TGI [7] was 99.5 µM, the TGI [8] was greater than 100 µM and the TGI [9] was greater than 100 µM. For the same molecule, the TGI [10] was greater than 100 µM, the TGI [11] was greater than 100 µM and the TGI [12] was greater than 100 µM. For the same molecule, the TGI [13] was greater than 100 µM, the TGI [14] was greater than 100 µM and the TGI [15] was greater than 100 µM. For the same molecule, the TGI [16] was greater than 100 µM, the TGI [17] was greater than 100 µM and the TGI [18] was greater than 100 µM. It also gave a TGI [19] greater than 100 µM, a TGI [20] greater than 100 µM and a TGI [21] greater than 100 µM. The TGI [22] was greater than 100 µM, the TGI [23] was greater than 100 µM and the TGI [24] was greater than 100 µM. The TGI [25] was greater than 100 µM, the TGI [26] was 96.4 µM and the TGI [27] was 75.5 µM. It also gave a TGI [28] greater than 100 µM, a TGI [29] greater than 100 µM and a TGI [30] greater than 100 µM. For the same molecule, the TGI [31] was greater than 100 µM, the TGI [32] was greater than 100 µM and the TGI [33] was greater than 100 µM. For the same molecule, the TGI [34] was greater than 100 µM, the TGI [35] was greater than 100 µM and the TGI [36] was 59 µM. For the same molecule, the TGI [37] was greater than 100 µM, the TGI [38] was greater than 100 µM and the TGI [39] was greater than 100 µM. The TGI [40] was greater than 100 µM, the TGI [41] was greater than 100 µM and the TGI [42] was greater than 100 µM. For the same molecule, the TGI [43] was greater than 100 µM, the TGI [44] was 81.2 µM and the TGI [45] was 38.4 µM. It also gave a TGI [46] greater than 100 µM, a TGI [47] of 80.4 µM and a TGI [48] greater than 100 µM. It also gave a TGI [49] greater than 100 µM, a TGI [50] greater than 100 µM and a TGI [51] greater than 100 µM.
With `CN1N(c2ccccc2)C(=O)C2=NC=C(C#N)C(=N)C21C` (centres undefined) the TGI [1] was greater than 100 µM, the TGI [2] was greater than 100 µM and the TGI [3] was greater than 100 µM. The TGI [52] was greater than 100 µM, the TGI [4] was greater than 100 µM and the TGI [5] was greater than 100 µM. The TGI [53] was greater than 100 µM, the TGI [6] was greater than 100 µM and the TGI [7] was greater than 100 µM. It also gave a TGI [8] greater than 100 µM, a TGI [9] greater than 100 µM and a TGI [10] greater than 100 µM. For the same molecule, the TGI [11] was greater than 100 µM, the TGI [12] was greater than 100 µM and the TGI [13] was greater than 100 µM. It also gave a TGI [14] greater than 100 µM, a TGI [15] greater than 100 µM and a TGI [16] greater than 100 µM. It also gave a TGI [17] greater than 100 µM, a TGI [18] greater than 100 µM and a TGI [54] greater than 100 µM. For the same molecule, the TGI [19] was greater than 100 µM, the TGI [20] was greater than 100 µM and the TGI [21] was greater than 100 µM. The TGI [22] was greater than 100 µM, the TGI [55] was greater than 100 µM and the TGI [23] was greater than 100 µM. The TGI [24] was greater than 100 µM, the TGI [25] was greater than 100 µM and the TGI [26] was greater than 100 µM. For the same molecule, the TGI [27] was greater than 100 µM, the TGI [28] was greater than 100 µM and the TGI [29] was greater than 100 µM. It also gave a TGI [30] greater than 100 µM, a TGI [31] greater than 100 µM and a TGI [32] greater than 100 µM. It also gave a TGI [33] greater than 100 µM, a TGI [34] greater than 100 µM and a TGI [56] greater than 100 µM. The TGI [36] was greater than 100 µM, the TGI [37] was greater than 100 µM and the TGI [38] was greater than 100 µM. It also gave a TGI [39] greater than 100 µM, a TGI [41] greater than 100 µM and a TGI [42] greater than 100 µM. It also gave a TGI [43] greater than 100 µM, a TGI [44] greater than 100 µM and a TGI [57] greater than 100 µM. The TGI [46] was greater than 100 µM, the TGI [48] was greater than 100 µM and the TGI [49] was greater than 100 µM. The TGI [50] was greater than 100 µM and the TGI [51] was greater than 100 µM.

Source: PubChem BioAssay (NCI)
